Consider 16 compounds from US10167299B2, “1-(3-aminopropyl) substituted cyclic amine compounds, preparation method therefor, and pharmaceutical compositions and uses thereof” (SHANGHAI INSTITUTE OF MATERIA MEDICA, CHINESE ACADEMY OF …, priority 2013, dated 2019).

One data set addresses CCR5 (Homo sapiens (Human), UniProt P51681). Briefly: Calcium flux inhibition experiment. The class given is cell-based. Conditions: for pIC50: HEK293/CCR5-Gα16 cell line, calcium flux, read-out: CCR5 IC50; for calcium influx inhibition effect in words, versus positive control compounds: conclusion from Table 1. On the technique in general: Calcium assays in cells follow changes in intracellular calcium, usually with a dye or a luminescent sensor.

For another data set, the system named is CCR5 protein. Briefly: Thermal stability of protein test (CPM-assay). The class given is binding. Conditions: thermal stability of CCR5 protein with compound, CPM dye. From the text:
Experimental theory: many cysteines are present in CCR5 protein sequence. Cysteines located in loop region form disulfide bonds to stabilize the tertiary structure of the protein. Some free cysteines in reduced state are located in the transmembrane region. Under excitation by incident light of 387 nm, the combination of free sulfhydryl and fluorescent dye CPM can emit excitation light of 436 nm. […] The free sulfhydryls originally located in the transmembrane region expose and combine with the fluorescent dye. And then the detector will detect changes in signal enhancement. Therefore, the thermal stability of membrane proteins can be determined according to the temperature (Tm) at the midpoint of changes in signal intensity.
Experimental steps: Upon preliminary purification, the obtained protein solution was transferred into a small concentration tube (100 kd, 500 ul) for concentration (1000 rcf, 12 min, 4° C.). After centrifugation, the concentration tube was taken out and flicked to prevent protein coagulation due to high local concentration. The final concentrated volume was about 50 μl. 117 μl of purified solution (volume is suitable to make the total volume up to 120 μl), 1 μl fluorescent dye cpm (in-house prepared) and 2 μl of concentrated protein solution (the amount of added protein is 3-5 μg according to the calculated concentration of the protein solution and the concentrated volume) were added to 2 ml Ependorf tube and incubated at room temperature for 20 min. And then the mixture was added to the cuvette (Qwan) and put in the testing equipment Cary, wherein the surface of the frosted glass faced out. The temperature was set in the range of 4-90° C. with 1° C. increase per minute and the program was run. Tm value can be obtained by processing the data and graph with a mapping software and can be used to compare the difference of protein thermal stability under different conditions.

A short description of data set [1]: Cytotoxicity (CC50) in TZM-bl cells. The class given is cell-based. Conditions: human.
The next data set concerns HIV-1SF162 virus strain. Briefly: Inhibition activity on TZM-bl cells infected with HIV-1SF162. Conditions: for EC50: Human immunodeficiency virus 1, TZM-bl; for therapeutic index (TI): TZM-bl cells infected with HIV-1SF162.
[2] abbreviates: TZM-bl cells (Table 3), read-out: CC50.

pIC50: −log10 of the molar value. ≈ marks a conversion by molar mass, not a printed value. Like-named read-outs stand apart in the source and are kept apart here. Where only a bound is given, the exact number is not on record here.

CCR5, sequence (P51681 whole entry): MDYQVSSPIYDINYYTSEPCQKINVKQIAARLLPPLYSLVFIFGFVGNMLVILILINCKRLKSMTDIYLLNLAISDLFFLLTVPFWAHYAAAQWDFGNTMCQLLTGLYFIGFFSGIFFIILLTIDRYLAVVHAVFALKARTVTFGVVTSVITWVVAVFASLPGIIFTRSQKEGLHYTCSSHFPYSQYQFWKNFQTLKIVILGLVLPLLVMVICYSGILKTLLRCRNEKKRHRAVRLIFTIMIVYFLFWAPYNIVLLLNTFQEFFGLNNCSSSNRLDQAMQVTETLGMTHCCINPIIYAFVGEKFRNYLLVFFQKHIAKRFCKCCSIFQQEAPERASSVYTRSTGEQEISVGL

The term pIC50 denotes the IC50 on a negative log10 scale, so that one unit is a factor of ten. One may read the CC50 as the concentration at which the toxic effect on the cells reaches its halfway point. What is called EC50 is the concentration that produces a half-maximal response. High values mean weaker potency, low ones greater potency. For the compound `Cc1nnc(C(C)C)n1C1CC2CCC(C1)N2CC[C@H](NC(=O)C1CCCC1)c1cccnc1` (stereo partly drawn) [Compound 10, N-[(1S)-3-[exo-3-(3-isopropyl-5-methyl-4H-1,2,4-triazol-4-yl)-8-azabicyclo[3.2.1]octane-8-yl]-1-(pyridin-3-yl)propyl]cyclopentane-1-carboxamide], the pIC50 at CCR5 was 7.44. In the data set on CCR5 protein, the “Tm (° C.)” value was 63.21 °C. The CC50 in data set [1] was greater than 100 µg/mL. In addition, in the data set on HIV-1SF162 virus strain, the EC50 turned out to be 1.42 µg/mL (≈ 3.06 µM) and the “therapeutic index (TI)” value is on record as greater than 70.42.
With `Cc1nnc(C(C)C)n1C1CCN(CC[C@H](NC(=O)C2CCC(F)(F)CC2)c2cccnc2)CC1` [Compound 5, 4,4-difluoro-N-[(1S)-3-[4-(3-isopropyl-5-methyl-4H-1,2,4-triazol-4-yl)-piperidin-1-yl]-1-(pyridin-3-yl)propyl]cyclohexane-1-carboxamide], the pIC50 at CCR5 was 7.53. In the data set on CCR5 protein, the “Tm (° C.)” value was 57.31 °C.
`CC(=O)N[C@@H](CCN1C2CCC1CC(n1c(C)nc3c1CCN(C(=O)C1CC1)C3)C2)c1ccc(F)s1` (stereo partly drawn) [Compound 132, N-{(1S)-3-[(3-endo)-3-(5-cyclopropionyl-2-methyl-4,5,6,7-tetrahydro-1H-imidazo[4,5-c]pyridin-1-yl)-8-azabicyclo[3.2.1]octane-8-yl]-1-(5-fluorothiophen-2-yl)-propyl}acetamide]: the pIC50 on CCR5 was 7.65. Further, in data set [1] (setting [2]), the CC50 is greater than 200 µg/mL. In the data set on HIV-1SF162 virus strain, the response was half-maximal at 0.097 µg/mL (≈ 0.189 µM) (EC50) and the “therapeutic index (TI)” value was greater than 2063.25.
As to `CC(=O)N[C@@H](CCN1C2CCC1CC(n1c(C)nc3c1CCN(C(C)=O)C3)C2)c1ccc(F)s1` (stereo partly drawn) [Compound 131, N-{(1S)-3-[(3-endo)-3-(5-acetyl-2-methyl-4,5,6,7-tetrahydro-1H-imidazo[4,5-c]pyridin-1-yl)-8-azabicyclo[3.2.1]octane-8-yl]-1-(5-fluorothiophen-2-yl)-propyl}acetamide], on CCR5, the pIC50 is 8.18 and the “calcium influx inhibition effect in words, versus positive control compounds” value is on record as “better than the positive control compounds”. The CC50 in data set [1] (setting [2]) was greater than 200 µg/mL. For the same compound, in the data set on HIV-1SF162 virus strain, the EC50 was 0.098 µg/mL (≈ 0.201 µM) and the “therapeutic index (TI)” value is listed as greater than 1302.27.
With `CC(=O)N[C@@H](CCN1C2CCC1CC(n1c(C)nc3c1CCN(C(=O)C1CC1)C3)C2)c1ccc(Cl)s1` (stereo partly drawn) [Compound 130, N-{(1S)-3-[(3-endo)-3-(5-cyclopropionyl-2-methyl-4,5,6,7-tetrahydro-1H-imidazo[4,5-c]pyridin-1-yl)-8-azabicyclo[3.2.1]octane-8-yl]-1-(5-chlorothiophen-2-yl)-propyl}acetamide], the pIC50 at CCR5 is 7.73. Further, in data set [1], the CC50 was greater than 200 µg/mL. In the data set on HIV-1SF162 virus strain, the EC50 is 0.053 µg/mL (≈ 0.1 µM) and the “therapeutic index (TI)” value is recorded as greater than 2562.98.
On to `Cc1nnc(C(C)C)n1C1CC2CCC(C1)N2CC[C@H](NC(=O)C1CCCCC1)c1ccsc1` (stereo partly drawn) [Compound 24], for which the pIC50 on CCR5 was 7.35. In the data set on CCR5 protein, the “Tm (° C.)” value was found to be 62.31 °C.
As for `CC(=O)N[C@@H](CCN1C2CCC1CC(n1c(C)nc3c1CCN(C(=O)C(C)C)C3)C2)c1ccc(F)s1` (stereo partly drawn) [Compound 135, N-{(1S)-3-[(3-endo)-3-(5-isobutyryl-2-methyl-4,5,6,7-tetrahydro-1H-imidazo[4,5-c]pyridin-1-yl)-8-azabicyclo[3.2.1]octane-8-yl]-1-(5-fluorothiophen-2-yl)-propyl}acetamide], on CCR5, the pIC50 is 8.08 and the “calcium influx inhibition effect in words, versus positive control compounds” value was “comparable to the positive control compounds”. The cytotoxic concentration (CC50) in data set [1] is greater than 200 µg/mL. In the data set on HIV-1SF162 virus strain, a half-maximal response (EC50) required 0.155 µg/mL (≈ 0.301 µM) and the “therapeutic index (TI)” value is greater than 1222.11.
For `Cc1ccc([C@H](CCN2C3CCC2CC(n2c(C)nnc2C(C)C)C3)NC(=O)c2ccccc2)s1` (stereo partly drawn) [Compound 32, N-[(1S)-3-[exo-3-(3-isopropyl-5-methyl-4H-1,2,4-triazol-4-yl)-8-azabicyclo[3.2.1]octane-8-yl]-1-(5-methylthiophen-2-yl)propyl]benzamide], at CCR5, the pIC50 is 8.08 and the “calcium influx inhibition effect in words, versus positive control compounds” value is “comparable to the positive control compounds”. The compound further had a CC50 in data set [1] greater than 200 µg/mL. Besides, in the data set with HIV-1SF162 virus strain, the EC50 was greater than 40 µg/mL.
`COC(=O)N1CCc2c(nc(C)n2C2CC3CCC(C2)N3CC[C@H](NC(C)=O)c2nccs2)C1` (stereo partly drawn) [Compound 119, Methyl 1-{(endo)-8-[(S)-3-acetamido-3-(thiazol-2-yl)-propyl]-8-azabicyclo[3.2.1]octan-3-yl}-2-methyl-1,4,6,7-tetrahydro-5H-imidazo[4,5-c]pyridine-5-carboxylate]: at CCR5, the pIC50 was 8.32 and the “calcium influx inhibition effect in words, versus positive control compounds” value was “better than the positive control compounds”. This compound showed a CC50 in data set [1] greater than 200 µg/mL. In the data set with HIV-1SF162 virus strain, a half-maximal response (EC50) required 0.738 µg/mL (≈ 1.52 µM) and the “therapeutic index (TI)” value is listed as greater than 270.84.
Take `CCC(=O)N1CCc2c(nc(C)n2C2CC3CCC(C2)N3CC[C@H](NC(C)=O)c2nccs2)C1` (stereo partly drawn) [Compound 120, N-{(1S)-3-[(3-endo)-3-(5-propionyl-2-methyl-4,5,6,7-tetrahydro-1H-imidazo[4,5-c]pyridin-1-yl)-8-azabicyclo[3.2.1]octane-8-yl]-1-(thiazol-2-yl)-propyl}acetamide]: at CCR5, the pIC50 is 7.56. Moreover, the CC50 in data set [1] is greater than 200 µg/mL. Moreover, in the data set on HIV-1SF162 virus strain, the response was half-maximal at 0.831 µg/mL (≈ 1.71 µM) (EC50) and the “therapeutic index (TI)” value was greater than 240.76.
Regarding `Cc1nnc(C(C)C)n1C1CC2CCC(C1)N2CC[C@H](NC(=O)C1CCCCC1)c1ccc(F)s1` (stereo partly drawn) [Compound 38, N-[(1S)-3-[exo-3-(3-isopropyl-5-methyl-4H-1,2,4-triazol-4-yl)-8-azabicyclo[3.2.1]octane-8-yl]-1-(5-fluorothiophen-2-yl)propyl]cyclohexane-1-carboxamide], on CCR5, the pIC50 is 8.03 and the “calcium influx inhibition effect in words, versus positive control compounds” value was “comparable to the positive control compounds”. Besides, in data set [1], the CC50 is greater than 200 µg/mL. Moreover, in the data set with HIV-1SF162 virus strain, it took 2.61 µg/mL (≈ 5.2 µM) to reach a half-maximal effect (EC50) and the “therapeutic index (TI)” value is reported as greater than 73.64.
The like results for `COC(=O)N1CCc2c(nc(C)n2C2CC3CCC(C2)N3CC[C@H](NC(C)=O)c2ccc(F)s2)C1` (stereo partly drawn) [Compound 133, Methyl 1-{(endo)-8-[(S)-3-acetamido-3-(5-fluorothiophen-2-yl)-propyl]-8-azabicyclo[3.2.1]octan-3-yl}-2-methyl-1,4,6,7-tetrahydro-5H-imidazo[4,5-c]pyridine-5-carboxylate] were, in that order, 8.75, “better than the positive control compounds”, greater than 200 µg/mL, 0.152 µg/mL (≈ 0.302 µM) and greater than 1313.56.
In the case of `COC(=O)N1CCc2c(nc(C)n2C2CC3CCC(C2)N3CC[C@H](NC(C)=O)c2ccc(Cl)s2)C1` (stereo partly drawn) [Compound 126, Methyl 1-{(endo)-8-[(S)-3-acetamido-3-(5-chlorothiophen-2-yl)-propyl]-8-azabicyclo[3.2.1]octan-3-yl}-2-methyl-1,4,6,7-tetrahydro-5H-imidazo[4,5-c]pyridine-5-carboxylate], the pIC50 on CCR5 is 7.66. Also, in data set [1], the CC50 is greater than 200 µg/mL. Besides, in the data set on HIV-1SF162 virus strain, the midpoint of the response, the EC50, lay at 0.091 µg/mL (≈ 0.175 µM) and the “therapeutic index (TI)” value is recorded as greater than 2207.68.
The like results for `CC(=O)N[C@@H](CCN1C2CCC1CC(n1c(C)nc3c1CCN(C(=O)C1CC1)C3)C2)c1nccs1` (stereo partly drawn) [Compound 122, N-{(1S)-3-[(3-endo)-3-(5-cyclopropionyl-2-methyl-4,5,6,7-tetrahydro-1H-imidazo[4,5-c]pyridin-1-yl)-8-azabicyclo[3.2.1]octane-8-yl]-1-(thiazol-2-yl)-propyl}acetamide] were, in that order, 7.61, greater than 200 µg/mL, 0.69 µg/mL (≈ 1.39 µM) and greater than 290.06.
On to `CC(=O)N[C@@H](CCN1C2CCC1CC(n1c(C)nc3c1CCN(C(C)=O)C3)C2)c1nccs1` (stereo partly drawn) [Compound 118, N-{(1S)-3-[(3-endo)-3-(5-acetyl-2-methyl-4,5,6,7-tetrahydro-1H-imidazo[4,5-c]pyridin-1-yl)-8-azabicyclo[3.2.1]octane-8-yl]-1-(thiazol-2-yl)-propyl}acetamide], for which, at CCR5, the pIC50 was 7.77. The 50% cytotoxic concentration (CC50) in data set [1] (setting [2]) is greater than 200 µg/mL. Further, in the data set with HIV-1SF162 virus strain, a half-maximal effect (EC50) was put at 0.669 µg/mL (≈ 1.42 µM) and the “therapeutic index (TI)” value is listed as greater than 168.03.
Regarding `Cc1ccc([C@H](CCN2C3CCC2CC(n2c(C)nnc2C(C)C)C3)NC(=O)Cc2ccc(F)cc2)s1` (stereo partly drawn) [Compound 33, 4-fluoro-N-[(1S)-3-[exo-3-(3-isopropyl-5-methyl-4H-1,2,4-triazol-4-yl)-8-azabicyclo[3.2.1]octane-8-yl]-1-(5-methylthiophen-2-yl)propyl]phenylacetamide], the pIC50 at CCR5 is 7.60. Further, in data set [1], the CC50 was greater than 200 µg/mL. Also, in the data set on HIV-1SF162 virus strain, the EC50 was 0.147 µg/mL (≈ 0.281 µM) and the “therapeutic index (TI)” value is listed as greater than 328.95.
